Data taken from patent publication US5411969A, “Antihyperlipidemic/antioxidant dihydroquinolines” (Bristol-Myers Squibb Company, priority 1993, dated 1995).

Key:
LDL = test: In vitro LDL oxidation (Cu++), conjugated diene formation; assay type: biochemical, rabbit; details: for LDL Oxd. Inhib. mean lag ratio: 10 μM, rabbit plasma LDL, Cu++, treated/control lag time
HMG-CoA reductase [1] = test: In vivo evaluation in normocholesterolemic chickens: specific activity of HMG-CoA reductase; design: species or system chicken; details: male chickens, orally dosed for 4 weeks at 4 mg/kg/day
Method: (§1) Hypocholesterolemic activity was evaluated for representative compounds of the present invention using γ-tocotrienol as a control in normocholesterolemic chickens. Newborn male chicks (6-10 for each group) were raised on a standard corn-soybean-based control diet for two weeks and then were switched to either control or experimental diets for four weeks. Drug treatment consisted of the addition of test compound to the corn-soybean-based. At the end of the feeding period, all the birds were fasted (about 36 hours) and refed (about 48 hours) to induce cholesterolgenic enzymes prior to sacrifice. The specific activity of HMG-CoA reductase, total serum cholesterol levels, and HDL/LDL cholesterol pools were examined (Table II).
(§2) Effects of Compounds of the present invention on Lipid
(§3) Parameters in Male Chickens
(§4) Orally dosed for 4-weeks at 4 mg/kg/day

[2] = Redox potential by cyclic voltammetry; assay type: physicochemical; details: for Oxd. Potential: cyclic voltammetry
Excerpt: One method for the measurement of general antioxidant capacity is stopped-flow kinetic analysis. (Mukai, et al., Bull. Chem. Soc. Jpn., 59: 3113-3116 (1986); Mukai, et al., J. Org. Chem., 54: 557-560 (1989); Mukai, et al. J. Org. Chem., 53: 430-432 (1988)). This is a sophisticated setup wherein, one measures radical transfer from a stable radical, (for example 2,6-di-tert-butyl-4-(4-methoxyphenyl)phenoxy), to a test compound spectrophotometrically as a function of time. […] (Mukai, et al., Bull. Chem. Soc. Jpn., 59: 3113-3116 (1986); Mukai, et al., J. Org. Chem., 54: 557-560 (1989); Mukai, et al. J. Org. Chem., 53: 430-432 (1988)). Voltammetry has been used by Moldeus et al. to study the antioxidant capacity of structurally related dibenzo[1,4]dichalcogenines as inhibitors of lipid peroxidation. (Cotgreave, et al., Biochem. Pharm., 42: 1481-85 (1991)). In their case, a strong correlation between voltammetric potential and the ability to inhibit lipid peroxidation was observed.
(Mukai, et al., J. Org. Chem., 53: 430-432 (1988); Mukai, et al., J. Org. Chem., 54: 552-556 (1989); Mukai, et al., J. Org. Chem., 56: 4188-4192 (1991)).

[3] = tested on: human hepatoma HepG2 cells; test: HepG2 cell culture model: cholesterol synthesis by 14C-acetate incorporation; assay type: cell-based; details: 4 h incubation, read-out: Cholesterol Biosynthesis
Method: (§5) The human hepatoma HepG2 cell culture model was employed to compare the intrinsic activities of the representative compounds of the present invention relative to the tocotrienols. HepG2 cells were incubated with the indicated compounds for 4 hours at 10 μM. Cholesterol synthesis was assayed by ^14 C-acetate incorporation over the final hour of incubation, and HMG-CoA reductase suppression (specific activity) was assayed in the microsomal fraction isolated from parallel cultures at the end of the 4 hour incubation.

[4] = In vivo hypocholesterolemic activity in normocholesterolemic chickens: total serum cholesterol and HDL/LDL cholesterol pools; design: species or system chicken; details: male chickens, orally dosed for 4 weeks at 4 mg/kg/day
Method: as §1, §2, §3, §4

HMG-CoA reductase [5] = test: HepG2 cell culture model: HMG-CoA reductase suppression (specific activity, microsomal fraction); assay type: cell-based, human; details: 10 μM, 4 h incubation, HepG2 cells
Method: as §5

hamster LDL = test: Ex vivo LDL lipid peroxidation assay in hamsters (Cu++ oxidation; conjugated dienes or lipid peroxides); details: 17 days; for Conj. Dienes lag ratio: treated/control
Method: As a secondary screen, test compounds are evaluated ex vivo for their oral effectiveness to inhibit LDL oxidation. […] Again, the conjugated diene assay is used to assess lipid peroxidation.
Hamsters (n=6 per group) were placed on an atherogenic diet (0.4% cholesterol+10% vitamin E stripped corn oil), and were orally dosed for 17 days with the indicated compounds at 75 mpk/day. The resistance of hamster LDL to copper-dependent oxidation in vitro was determined by conjugated dienes or lipid peroxides.

cholesterol fed rabbits = details: cited from earlier work
[6] = in vivo; cited from earlier work

Compound	LDL Oxd. Inhib. mean lag ratio (LDL)	activity at 10 µM [3] [%]	Tot.-C [4]	lipid peroxide formation in LDL, % of Control, 1.5 h (hamster LDL; 50 mg/kg/d oral)	lipid peroxide formation in LDL, % of Control, 3.0 h (hamster LDL; 50 mg/kg/d oral)	Conj. Dienes lag ratio (hamster LDL; 50 mg/kg/d oral)	other results
Cc1cc(C(C)(C)C)c(O)c(C(C)(C)C)c1 [Butylatedhydroxytoluene]	1.38						
CC(C)=CCC/C(C)=C/CC/C(C)=C/CCCOc1ccc2c(c1)C(C)=CC(C)(C)N2 [Compound 4, 1,2-Dihydro-2,2,4-Trimethyl-6-[(5,9,13-Trimethyl-4(E),8(E),1 2-tetradecatrienyl)oxy]Quinoline]	1.80	48	65.9 % of Control	3 % of Control	31 % of Control	1.57	HMGR (HMG-CoA reductase [1]): 83.8 % of Control; Oxd. Potential [2]: 0.47 Volts; oxidation potential compared with standard reference agents ([2]; over standard reference agents, in words): lower oxidation potential; HDL-C [4]: 89.0 % of Control; LDL-C [4]: 45.3 % of Control; LDL protective capacity compared with standard reference agents (LDL; in vitro and ex vivo (Tables III, IV), in words): superior LDL protective capacity; HMGR Suppression (HMG-CoA reductase [5]): 40% of Control
CC(C)=CCC/C(C)=C/CC/C(C)=C/CCCSc1ccc2c(c1)C(C)=CC(C)(C)N2 [Compound 8, 1,2-Dihydro-2,2,4-Trimethyl-6-[(5,9,13-Trimethyl-4(E),8(E),1 2-tetradecatrienyl)thio]Quinoline]	1.64	3	100.9 % of Control				Oxd. Potential [2]: 1.20 Volts; HDL-C [4]: 98.2 % of Control; LDL-C [4]: 99.1 % of Control
CC(C)=CCC/C(C)=C/CC/C(C)=C/CCCCc1ccc2c(c1)C(C)=CC(C)(C)N2 [Compound 11, 1,2-Dihydro-2,2,4-Trimethyl-6-[6,10,14-Trimethyl-5(E),9(E), 13-Pentadecatrienyl]Quinoline]		89					
CC1=CC(C)(C)Nc2ccc(OCCC/C=C(\C)CCc3cccc(C(F)(F)F)c3)cc21 [Compound 18]		42	61.2 % of Control				HMGR (HMG-CoA reductase [1]): 66.4 % of Control; HDL-C [4]: 93.8 % of Control; LDL-C [4]: 26.0 % of Control
CCOc1ccc2c(c1)C(C)=CC(C)(C)N2 [ETHOXYQUIN]	1.21						lipid peroxide formation in LDL, % of Control, 1.5 h (hamster LDL; 75 mg/kg/d oral): 0 % of Control; lipid peroxide formation in LDL, % of Control, 3.0 h (hamster LDL; 75 mg/kg/d oral): 13 % of Control; Conj. Dienes lag ratio (hamster LDL; 75 mg/kg/d oral): 1.81
CC1(C)C=C(CS(=O)(=O)O)c2cc(Cc3ccc4c(c3)C(CS(=O)(=O)O)=CC(C)(C)N4)ccc2N1 [MTDQ-DA]							effects on various lipid parameters (cholesterol fed rabbits; cholesterol fed rabbits): fairly modest effects on various lipid parameters; plaque progression (cholesterol fed rabbits; relative to the cholesterol fed rabbit controls): completely inhibited plaque progression
O=C1O[C@H]([C@@H](O)CO)C(O)=C1O [Na Ascorbate]				8 % of Control	91 % of Control	1.33	
CC(C)(Sc1cc(C(C)(C)C)c(O)c(C(C)(C)C)c1)Sc1cc(C(C)(C)C)c(O)c(C(C)(C)C)c1 [PROBUCOL, 4,4'-[(1-methylethylidene)bis(thio)]-bis[2,6-bis(1,1-dimethylethyl)]]				48 % of Control	93 % of Control		bioavailability [6]: suffers from bioavailability problems
Cc1c(C)c2c(c(C)c1O)CCC(C)(CCCC(C)CCCC(C)CCCC(C)C)O2 (stereo not drawn) [α-Tocopherol]	1.01			15 % of Control	36 % of Control	> 3	
Cc1c(O)cc2c(c1C)OC(C)(CCCC(C)CCCC(C)CCCC(C)C)CC2 (centres unmarked) [γ-Tocopherol]	1.17						
CC(C)=CCC/C(C)=C/CC/C(C)=C/CCC1(C)CCc2cc(O)c(C)c(C)c2O1 (centres unmarked) [γ-Tocotrienol]	1.27	29	76.3 % of Control	7 % of Control	67 % of Control	1.48	HMGR Suppression (HMG-CoA reductase [5]): 65% of Control
